This is an account of results in publication PMC7175367, “1H-Imidazole-2,5-Dicarboxamides as NS4A Peptidomimetics: Identification of a New Approach to Inhibit HCV-NS3 Protease” (Biomolecules, 2020).

“And” between values parts separate entries of the source, which are not always exact repeats. Identical values can stand only once. “Also recorded” adds a separate entry of the source.

Series [1] deals with T1, NS3 (NS4A21`–33` binding site) (Hepatitis C virus genotype 4a, UniProt O39929).
T1 construct: NS3 protease domain 1–181 aa plus an N-terminal T7 tag and C-terminal His tag; made in house; host or cells: E. coli Rosetta (DE3) pLysS, vector pET-3a
The series can be described thus: Fluorescence anisotropy (FA) competition assay with FITC-NS4A21`–33`. Particulars: displacement of FITC-NS4A21`–33` (0.10 µM) from NS3, 480/520 nm, compounds 150 to 0.292 µM; for IC50: Competition IC50 ± SEM. Also on record: species or system HCV genotype 4a. How it is done: This assay measures the potency by which synthetic peptidomimetics affect the binding of labeled NS4A21`–33`. Before testing the MOC compounds, the binding affinity of fluorescein isothiocyanate NS4A21`–33` (FITC-NS4A21`–33`) was first determined (see Supplementary Material Figure S3) based on our previous work. For this particular protein batch, the optimal ratio to be used in the FA affinity test was calculated to be 0.5 µM NS3 and 0.1 µM FITC-NS4A21`–33`. Compounds that efficiently compete with NS4A21`–33` are expected to decrease the fluorescence emitted from NS3/FITC-4A21-34` mixture.
In a 96-well plate, we added a place binding buffer (20 mM HEPES, 10 mM DTT, 200 mM NaCl, pH 7.60) and a mixture of NS3 ([…]) and FITC-NS4A (0.10 µM) at the calculated affinity constant concentration. A serial dilution of MOC compounds (dissolved in 1.50% DMSO in binding buffer) (1/2 dilution starting from 150 to 0.292 µM) were mixed gently for 60 min in a dark place and the fluorescence was measured at excitation/emission wavelengths of 480/520 nm. The competition IC50 was calculated according to the recommended equation embedded in GraphPad Prism v. 8.0® and Instat® software.
For orientation: In fluorescence polarisation assays a small probe gives low polarisation when free and higher when bound to something large.

Series [2] deals with HCV NS3 protease domain, genotype 4a (1-181 aa, N-terminal T7 tag, C-terminal His tag) (hepatitis C virus genotype 4a).
For another series, the target named is T2, NS3 domain (Hepatitis C virus genotype 4a, UniProt O39929).
T2 construct: NS3 protease domain 1–181 aa plus an N-terminal T7 tag and C-terminal His tag; made in house; host or cells: E. coli Rosetta (DE3) pLysS, vector pET-3a
Briefly: Differential static light scattering (DSLS) binding test. The arrangement: species or system HCV genotype 4a. To be noted: NS3 domain 15.0 µM with equimolar compound; for ΔTagg (liganded protein − free protein): 25.0 to 85.0 °C, n = 3; for ΔTagg as % of the positive control NS4A21`–33`: relative to NS4A21`–33`. How it is done: We studied the binding of MOC compounds with NS3 by differential static light scattering (DSLS). The NS3 domain stability upon binding to NS4A was measured by monitoring denatured protein aggregation upon increasing the temperature gradually from 25.0 to 85.0 °C (0.5 °C increments) at 600 nm. If a ligand binds to the protein, this increases a protein’s aggregation temperature (Tagg). DSLS provides an advantage of being a label-free binding assay technique and ΔTagg (of liganded protein−free protein) can be used to assess relative binding affinities of ligands. For NS3, the ΔTagg values that occurred upon binding of the MOC compounds were measured and compared to that of NS4A21`–33` as a positive control.
We studied the binding of NS4A and its mutants with NS3 by DSLS using Stargazer-2™ (Harbinger Biotechnology and Engineering Corporation, Toronto, Canada). This method assesses protein stability by monitoring aggregate formation using controlled, gradually elevated temperatures. The NS3 domain stability upon binding to NS4A was measured by monitoring denatured protein aggregation upon increasing the temperature from 25.0 to 85.0 °C (0.5 °C increments) at 600 nm. The Tagg values were calculated automatically from raw data using Stargazer-AIR® software. All experiments were repeated three times using the same batch of NS3 protein.
The NS3 domain (15.0 µM), alone or mixed with an equimolar equivalent of tested MOC derivative, was added to a binding buffer (20.0 mM HEPES, 10.0 mM DTT, 200 mM NaCl, pH 7.60) to a final volume 100 µL. The mixture was incubated at room temperature with gentle shaking for 2 h. Afterwards, 10 µL of the mixture was transferred into a clear bottomed Nunc 384-well plate and covered by 10 µL paraffin oil to minimize evaporation. Protein aggregation was monitored by tracking the change in scattered light that was detected by a charged coupled device (CCD) camera. Snapshot images of the plate were taken every 0.5 °C. The pixel intensities in a preselected region of each well were integrated using image analysis software to generate a value representative of the total amount of scattered light in that region. These intensities were then plotted against temperature for each sample well and fitted to obtain the aggregation temperature (Tagg). Aggregation was monitored and analyzed to assess the effect of NS4A and its synthetic analogues on the stability of the NS3 as an indicator of binding. Each experiment was repeated three times. Statistical analysis was performed using GraphPad Prism v. 8.0® and Instat® v. 3.10 software.

A further series addresses T3, NS3 protease (Hepatitis C virus genotype 4a, UniProt O39929).
T3 construct: NS3 protease domain 1–181 aa plus an N-terminal T7 tag and C-terminal His tag; made in house; host or cells: E. coli Rosetta (DE3) pLysS, vector pET-3a
The series can be described thus: Enzyme inhibition assay (SensoLyte 520 HCV Protease Assay Kit, modified). The series is classed as biochemical, HCV genotype 4a. How it is done:
MOC-24 was selected for a qualitative testing for its inhibition of NS3 protease activity. Experiments were carried out using the SensoLyte® 520 HCV Protease Assay Kit. This assay measures the recovered fluorescence emitted upon cleavage of the labeled peptide substrate representing the NS4A/NS4B junction. Considering that NS3 without NS4A is almost a thousand-times less catalytic, the method was modified to suit the purpose of our allosteric inhibition assay. […] As a positive control, an equimolar mixture of NS4A with NS3 (equimolar, 2.00 µM each) caused only a 9-fold increase in the catalytic activity of the enzyme (Figure 5), which was far less than the reported value, possibly due to the large amount of protein used.
The assay was performed using SensoLyte-520® HCV protease assay kit fluorometric* (Anaspec, Fremont, CA, USA) according to a modified procedure to suit the purpose of determination of allosteric inhibition. NS3 (2.00 µM) was mixed with MOC-24 (4.00 µM) for 15.0 min. Afterwards, 5-FAM/QXL™520 fluorescence resonance energy transfer (FRET) peptide was added as instructed by the assay kit manual. […] In the FRET peptide, the fluorescence of 5-FAM is quenched by QXL™520. Upon cleavage into two separate fragments by HCV NS3/4A protease, the fluorescence of 5-FAM is recovered, and can be monitored at 490 nm/520 nm (excitation/emission). […]

Usually IC50 stands for the concentration that inhibits the measured activity by half. A high value points to weaker potency in that assay. Consider `CCC(C)CCNC(=O)c1ncc(C(=O)NCCCCNC(=N)N)[nH]1` (centres unmarked) [MOC-32, N^5-(4-guanidinobutyl)-N^2-(3-methylpentyl)-1H-imidazole-2,5-dicarboxamide], for which the IC50 in series [1] is 7.7 µM and 7.74 µM.

For orientation: melting point means the temperature, or range, at which the solid turns liquid. `CC(C)CCCCCNC(=O)c1ncc(C(=O)NCCCCNC(=N)N)[nH]1` [MOC-31, N^5-(4-Guanidinobutyl)-N^2-(6-methylheptyl)-1H-imidazole-2,5-dicarboxamide]: the melting point fell in the range of 83 to 84 °C. Moreover, the 50% inhibitory concentration (IC50) in series [1] came out at 12.1 ± 1.69 µM.

With `N=C(N)NCCCCNC(=O)c1cnc(C(=O)NCCOC2CCCCC2)[nH]1` [MOC-26, N^2-(2-(Cyclohexyloxy)ethyl)-N^5-(4-guanidinobutyl)-1H-imidazole-2,5-dicarboxamide], the IC50 in series [1] was greater than 100 µM.

NS4A_(21`–33`) peptide, LL-G21…33-LL returned an NS3 protease activity (SensoLyte 520 HCV protease assay, 5-FAM/QXL520 FRET peptide); NS3 2.00 µM with NS4A 2.00 µM against NS3 alone in series [2] of 9 fold.

Turning to `N=C(N)NCCCCNC(=O)c1cnc(C(=O)NCCCOc2ccccc2)[nH]1` [MOC-29, N^5-(4-Guanidinobutyl)-N^2-(3-phenoxypropyl)-1H-imidazole-2,5-dicarboxamide], the melting point was in the range of 135 to 138 °C. Besides, the IC50 in series [1] was greater than 100 µM.

With `CCCCCNC(=O)c1ncc(C(=O)NCCCCNC(=N)N)[nH]1` [MOC-23, N^5-(4-Guanidinobutyl)-N^2-(n-pentyl)-1H-imidazole-2,5-dicarboxamide], at NS3 domain, the “ΔTagg (liganded protein − free protein)” value was found to be 0.32 °C and the “ΔTagg as % of the positive control NS4A21`–33`” value (shortened to “ΔTagg as %”) is listed as 19.5%. For the same compound, the IC50 in series [1] stood at 4.7 ± 0.327 µM.

As for `CCCCCCNC(=O)c1ncc(C(=O)NCCCCNC(=N)N)[nH]1` [MOC-24, N^5-(4-Guanidinobutyl)-N^2-(n-hexyl)-1H-imidazole-2,5-dicarboxamide], at NS3 protease (qualitative, NS3 2.00 µM, MOC-24 4.00 µM, 5-FAM/QXL520 FRET peptide), the NS3 catalytic activity result is “inhibited NS3 protease activity; also recorded: complete loss of NS3 catalytic activity”. Besides, at NS3 domain, the “ΔTagg (liganded protein − free protein)” value was determined as 0.60 °C; the “ΔTagg as %” value was 39.8% and 40%. For the same compound, the IC50 in series [1] was 1.9 µM and 1.91 µM.

In the case of `CCCCCCNC(=O)c1ncc(C(=O)NCc2ccccn2)[nH]1` [MOC-33, N^2-(n-Hexyl)-N^5-(pyridin-2-ylmethyl)-1H-imidazole-2,5-dicarboxamide], the “ΔTagg (liganded protein − free protein)” value at NS3 domain is “much weaker binding”. Also, in series [1], the IC50 came out at 40.3 ± 24 µM and the “Competition IC50 ± SEM” value is listed as “much weaker binding”.

As to LL-G21SVVIVGRIVLSG33-LL [NS4A], the “fold increase in the catalytic activity of the enzyme” value at NS3 protease (positive control, NS4A equimolar with NS3, 2.00 µM each) is reported as 9 fold.

In turn, `N=C(N)NCCCCNC(=O)c1cnc(C(=O)NCCCOC2CCCCC2)[nH]1` [MOC-27, N^2-(3-(Cyclohexyloxy)propyl)-N^5-(4-guanidinobutyl)-1H-imidazole-2,5-dicarboxamide] registered an IC50 in series [1] greater than 100 µM.

The compound `N=C(N)NCCCCNC(=O)c1cnc(C(=O)NCCOc2ccccc2)[nH]1` [MOC-28, N^5-(4-Guanidinobutyl)-N^2-(2-phenoxyethyl)-1H-imidazole-2,5-dicarboxamide] came in with a melting point of 137 to 139 °C. Besides, in series [1], the IC50 was greater than 100 µM.

In the case of `CC(C)OCCCCNC(=O)c1ncc(C(=O)NCCCCNC(=N)N)[nH]1` [MOC-30, N^5-(4-Guanidinobutyl)-N^2-(4-isopropoxybutyl)-1H-imidazole-2,5-dicarboxamide], the IC50 in series [1] turned out to be 28.5 ± 8.55 µM.

Compound `CCCCCNC(=O)c1ncc(C(=O)NCC(=O)NC)[nH]1` [MOC-11, N^5-(2-(Methylamino)-2-oxoethyl)-N^2-(n-pentyl)-1H-imidazole-2,5-dicarboxamide] yielded a melting point of 87 °C. Further, on NS3 domain, the “ΔTagg (liganded protein − free protein)” value amounted to 0.82 °C and the “ΔTagg as %” value worked out at 54.6%. In series [1], this compound had an IC50 of 17.3 ± 1.22 µM.
